# Source: PubChem BioAssay AID1963973 (Molecular Pharmacology Branch, DTP, NCI, 2024)
# Test system: 883617-216-R-J1-PDC tumor spheroids, viability
# Experiment: Anticancer human tumor 883617-216-R-J1-PDC patient-derived bladder carcinoma cell line growth inhibition [PI3K]
# Details: spheroids with HUVEC and MSC; for IC50: curve of first compound; for viability, T/C: stronger effect = lower value
# How it was run: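 Complex 3D spheroids (cancer cells + endothelial HUVEC + mesenchymal stem cells); drug pairs of targeted agent x inavolisib/alpelisib/duvelisib/copanlisib; half-log series from ~Cmax, max 10 microM if Cmax unknown; endpoint viability.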
# [1] = second compound 0.0316 µM, first compound 0.00316 µM
# [2] = second compound 0.0316 µM, first compound 0.01 µM
# [3] = second compound 0.0316 µM, first compound 0.0316 µM
# [4] = second compound 0.0316 µM, first compound 0.1 µM
# [5] = second compound 0.1 µM, first compound 0.00316 µM
# [6] = second compound 0.1 µM, first compound 0.01 µM
# [7] = second compound 0.1 µM, first compound 0.0316 µM
# [8] = second compound 0.1 µM, first compound 0.1 µM
# [9] = second compound 0.316 µM, first compound 0.00316 µM
# [10] = second compound 0.316 µM, first compound 0.01 µM
# [11] = second compound 0.316 µM, first compound 0.0316 µM
# [12] = second compound 0.316 µM, first compound 0.1 µM
# [13] = second compound 1 µM, first compound 0.00316 µM
# [14] = second compound 1 µM, first compound 0.01 µM
# [15] = second compound 1 µM, first compound 0.0316 µM
# [16] = second compound 1 µM, first compound 0.1 µM
# [17] = second compound 3.16 µM, first compound 0.00316 µM
# [18] = second compound 3.16 µM, first compound 0.01 µM
# [19] = second compound 3.16 µM, first compound 0.0316 µM
# [20] = second compound 3.16 µM, first compound 0.1 µM
# [21] = second compound 10 µM, first compound 0.00316 µM
# [22] = second compound 10 µM, first compound 0.01 µM
# [23] = second compound 10 µM, first compound 0.0316 µM
# [24] = second compound 10 µM, first compound 0.1 µM
# [25] = second compound 0.0316 µM, first compound 0.000316 µM
# [26] = second compound 0.0316 µM, first compound 0.001 µM
# [27] = second compound 0.1 µM, first compound 0.000316 µM
# [28] = second compound 0.1 µM, first compound 0.001 µM
# [29] = second compound 0.316 µM, first compound 0.000316 µM
# [30] = second compound 0.316 µM, first compound 0.001 µM
# [31] = second compound 1 µM, first compound 0.000316 µM
# [32] = second compound 1 µM, first compound 0.001 µM
# 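Further: spheroids exposed to agents for 7 days before the viability read.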
smiles,measurement,setting,value
CCN1CCN(Cc2ccc(Nc3ncc(F)c(-c4cc(F)c5nc(C)n(C(C)C)c5c4)n3)nc2)CC1 + Cc1nc(NC(=O)N2CCCC2C(N)=O)sc1-c1ccnc(C(C)(C)C(F)(F)F)c1,IC50,second compound 0.0316 µM,226 nM
same,IC50,second compound 0.1 µM,26.3 nM
same,IC50,second compound 0.316 µM,4.15 nM
same,IC50,second compound 1 µM,< 3.16 nM
same,IC50,second compound 3.16 µM,< 3.16 nM
same,IC50,second compound 10 µM,< 3.16 nM
same,"viability, T/C",[1],75.7%
same,"viability, T/C",[2],64.7%
same,"viability, T/C",[3],64.2%
same,"viability, T/C",[4],53.8%
same,"viability, T/C","second compound 0.0316 µM, first compound 0.316 µM",49.9%
same,"viability, T/C","second compound 0.0316 µM, first compound 1 µM",39.6%
same,"viability, T/C",[5],59.7%
same,"viability, T/C",[6],56.3%
same,"viability, T/C",[7],46.4%
same,"viability, T/C",[8],44.4%
same,"viability, T/C","second compound 0.1 µM, first compound 0.316 µM",44.3%
same,"viability, T/C","second compound 0.1 µM, first compound 1 µM",36.3%
same,"viability, T/C",[9],53.3%
same,"viability, T/C",[10],39.7%
same,"viability, T/C",[11],37%
same,"viability, T/C",[12],31.4%
same,"viability, T/C","second compound 0.316 µM, first compound 0.316 µM",26.6%
same,"viability, T/C","second compound 0.316 µM, first compound 1 µM",28.5%
same,"viability, T/C",[13],29.1%
same,"viability, T/C",[14],25.5%
same,"viability, T/C",[15],24.1%
same,"viability, T/C",[16],17.1%
same,"viability, T/C","second compound 1 µM, first compound 0.316 µM",21.4%
same,"viability, T/C","second compound 1 µM, first compound 1 µM",19.3%
same,"viability, T/C",[17],12.3%
same,"viability, T/C",[18],13.7%
same,"viability, T/C",[19],11.8%
same,"viability, T/C",[20],10.5%
same,"viability, T/C","second compound 3.16 µM, first compound 0.316 µM",14.6%
same,"viability, T/C","second compound 3.16 µM, first compound 1 µM",10.5%
same,"viability, T/C",[21],7.72%
same,"viability, T/C",[22],5.77%
same,"viability, T/C",[23],5.3%
same,"viability, T/C",[24],4.95%
same,"viability, T/C","second compound 10 µM, first compound 0.316 µM",5.02%
same,"viability, T/C","second compound 10 µM, first compound 1 µM",5.41%
Cn1ncnc1[C@H]1c2n[nH]c(=O)c3cc(F)cc(c23)N[C@@H]1c1ccc(F)cc1 + Cc1nc(NC(=O)N2CCCC2C(N)=O)sc1-c1ccnc(C(C)(C)C(F)(F)F)c1,IC50,second compound 0.0316 µM,> 100 nM
same,IC50,second compound 0.1 µM,> 100 nM
same,IC50,second compound 0.316 µM,< 0.316 nM
same,IC50,second compound 1 µM,< 0.316 nM
same,IC50,second compound 3.16 µM,< 0.316 nM
same,IC50,second compound 10 µM,< 0.316 nM
same,"viability, T/C",[25],88.1%
same,"viability, T/C",[26],74%
same,"viability, T/C",[1],68.2%
same,"viability, T/C",[2],68.5%
same,"viability, T/C",[3],64.8%
same,"viability, T/C",[4],52.9%
same,"viability, T/C",[27],66.9%
same,"viability, T/C",[28],67.4%
same,"viability, T/C",[5],65.7%
same,"viability, T/C",[6],52.4%
same,"viability, T/C",[7],54.9%
same,"viability, T/C",[8],52%
same,"viability, T/C",[29],43.5%
same,"viability, T/C",[30],47.3%
same,"viability, T/C",[9],49.5%
same,"viability, T/C",[10],45.5%
same,"viability, T/C",[11],35.4%
same,"viability, T/C",[12],34.9%
same,"viability, T/C",[31],27.5%
same,"viability, T/C",[32],31.6%
same,"viability, T/C",[13],23.1%
same,"viability, T/C",[14],26.2%
same,"viability, T/C",[15],27.2%
same,"viability, T/C",[16],21.3%
same,"viability, T/C","second compound 3.16 µM, first compound 0.000316 µM",16%
same,"viability, T/C","second compound 3.16 µM, first compound 0.001 µM",16.1%
same,"viability, T/C",[17],12%
same,"viability, T/C",[18],13%
same,"viability, T/C",[19],14.1%
same,"viability, T/C",[20],12%
same,"viability, T/C","second compound 10 µM, first compound 0.000316 µM",7.59%
same,"viability, T/C","second compound 10 µM, first compound 0.001 µM",8.2%
same,"viability, T/C",[21],6.62%
same,"viability, T/C",[22],6.95%
same,"viability, T/C",[23],7.18%
same,"viability, T/C",[24],5.36%
Cn1ncnc1[C@H]1c2n[nH]c(=O)c3cc(F)cc(c23)N[C@@H]1c1ccc(F)cc1 + COc1c(OCCCN2CCOCC2)ccc2c3n(c(=NC(=O)c4cnc(N)nc4)nc12)CCN3,IC50,second compound 0.00316 µM,> 100 nM
same,IC50,second compound 0.01 µM,> 100 nM
same,IC50,second compound 0.0316 µM,< 0.316 nM
same,IC50,second compound 0.1 µM,< 0.316 nM
same,IC50,second compound 0.316 µM,< 0.316 nM
same,IC50,second compound 1 µM,< 0.316 nM
same,"viability, T/C","second compound 0.00316 µM, first compound 0.000316 µM",88.1%
same,"viability, T/C","second compound 0.00316 µM, first compound 0.001 µM",79.5%
same,"viability, T/C","second compound 0.00316 µM, first compound 0.00316 µM",87.2%
same,"viability, T/C","second compound 0.00316 µM, first compound 0.01 µM",75.3%
same,"viability, T/C","second compound 0.00316 µM, first compound 0.0316 µM",67.2%
same,"viability, T/C","second compound 0.00316 µM, first compound 0.1 µM",54.6%
same,"viability, T/C","second compound 0.01 µM, first compound 0.000316 µM",63.2%
same,"viability, T/C","second compound 0.01 µM, first compound 0.001 µM",64.7%
same,"viability, T/C","second compound 0.01 µM, first compound 0.00316 µM",64.9%
same,"viability, T/C","second compound 0.01 µM, first compound 0.01 µM",86.1%
same,"viability, T/C","second compound 0.01 µM, first compound 0.0316 µM",54.8%
same,"viability, T/C","second compound 0.01 µM, first compound 0.1 µM",45%
same,"viability, T/C",[25],31.3%
same,"viability, T/C",[26],36.6%
same,"viability, T/C",[1],35.3%
same,"viability, T/C",[2],33.9%
same,"viability, T/C",[3],39.3%
same,"viability, T/C",[4],29%
same,"viability, T/C",[27],16%
same,"viability, T/C",[28],17.7%
same,"viability, T/C",[5],16.2%
same,"viability, T/C",[6],15.3%
same,"viability, T/C",[7],15.6%
same,"viability, T/C",[8],14.1%
same,"viability, T/C",[29],5.21%
same,"viability, T/C",[30],5.06%
same,"viability, T/C",[9],5.56%
same,"viability, T/C",[10],5.19%
same,"viability, T/C",[11],5.74%
same,"viability, T/C",[12],3.68%
same,"viability, T/C",[31],4.93%
same,"viability, T/C",[32],4.65%
same,"viability, T/C",[13],3.52%
same,"viability, T/C",[14],2.9%
same,"viability, T/C",[15],3.13%
same,"viability, T/C",[16],2.73%
